Source: patent US9943524B2, “Use of alkaloid in preparing pharmaceutical compositions for preventing or treating pulmonary fibrosis” (China Pharmaceutical University, priority 2014, dated 2018)

Legend:
[1] = test system: cough of guinea pig induced by citric acid; details: cited from earlier work
[2] = test system: cough reflex pathway; details: in vivo; cited from earlier work
[3] = test system: pulmonary fibrosis mice induced by bleomycin; test: Activity of 8 alkaloids and pentoxyverine against pulmonary fibrosis in mice (Embodiment 3); type: in vivo, C57BL/6 mice; details: intragastric from first day after model to 21th day; for pulmonary inflammation, injury and fibrosis in HE and Masson stained pathological sections: alkaloids and pentoxyverine 30 mg/kg (FIG. 1B, 1C)
Experimental: (§1) Female C57BL/6 mice (eight-week-old) are established for models after 7 days, the time is set for the mice to adapt to the environment. After fasts for overnight, the mice are anaesthetized by 3% chloral hydrate and fixed. Sterilize and incise neck skin longitudinally as little injury as possible. Split fascia and muscle with tweezers longitudinally and expose the windpipe. Then, about 35 μl (3.5 mg/kg) bleomycin are injected into windpipe with microinjector. Put the mice upright rapidly and rotate the mice for 3˜5 minutes, so that bleomycin is able to enter into the pulmones uniformly. Observe the breathing of mice. Sterilize neck injury with 75% alcohol tampon and stitch the wound, then 1 drop or 2 drops of benzylpenicillin injection is/are dripped into the suture. Put the mice back into dry and clean cages, and feed them normally after waking up. Operations are done on operating table at about […]. Physiological saline using in injection is injected into windpipe of sham operation group.
Experimental mice are randomly divided into 12 groups: 10 mice in model group, 10 mice in pentoxyverine group, and 5 mice in any other group. Group 1 is sham operation group, group 2 is model group, group 3 is pentoxyverine group, group 4 is positive drug pirfenidone group, groups 5-12 are compounds I-VIII administration group respectively. Models of groups 2-12 are established by using bleomycin with the same method used in embodiment 2. From the first day after successfully establishing model, 30 mg/kg pentoxyverine and 300 mg/kg pirfenidone are given to group 3 and group 4 by means of intragastric administration respectively. 30 mg/kg compounds I-VIII are given to groups 5-12 also by means of intragastric administration respectively. Besides, same doses of solvent are given to sham operation group and model group until the 21th day. After the last intragastric administration, the mice are killed to collect the lung tissue, and the right lobule is used for determining the content of hydroxyproline, while the left lobule is used for preparing pathological sections.

[4] = test system: pulmonary fibrosis mice induced by bleomycin; test: Determination of mice mortality (Embodiment 4); type: in vivo, C57BL/6 mice
Experimental: as §1
(§2) Model animals are divided into prevention groups and treatment groups, then drugs are given to the two groups respectively. According to internationally methods of drug administration, drugs are given continuously to the prevention groups by means of intragastric administration from the second day after successfully establishing model to the 14th day, and drugs are given continuously to treatment groups by means of intragastric administration from the 8th day after successfully establishing model to the 21th day. Groups and dosage regimen are shown in tab.1.
From the 0th day (the day when the model is established) to 14th day, drugs are given continuously to prevention groups. From the 8th day after successfully establishing model to 21th day, drugs are given continuously to treatment groups. Statistical analysis of death of animals in each group is carried on every day and the survival rate of animals in each group is calculated. Results are shown in tab.2.

[5] = test system: pulmonary fibrosis mice induced by bleomycin; test: Detection of the mice lung index (Embodiment 4); type: in vivo, C57BL/6 mice; details: 30 and 60 mg/kg, prevention groups and treatment groups, versus model group (FIG. 2); lower dose better in prevention groups
Experimental: as §1, §2
After the last intragastric administration, the mice are killed to strip and weigh the lung, and the lung index is the lung weight divided by mouse weight (FIG. 2). […] In general, the 3 compounds have better effect in decreasing the mortality of mice than the positive drug pirfenidone.

[6] = test system: pulmonary fibrosis mice induced by bleomycin; test: HE stained pathological evaluation and inflammation scores (Embodiment 4); type: in vivo, C57BL/6 mice; details: for lung tissue inflammation scores (HE stained, grade 0-3): 30, 60 mg/kg, prevention and treatment groups (FIG. 4), lower dose better; for pulmonary inflammation and injury, HE stained pathological changes: prevention groups and treatment groups (FIG. 3), lower dose (30 mg/kg) better than higher dose
Experimental: as §1, §2
After the last intragastric administration, the mice are anaesthetized and killed to collect the lung tissue. Immerse the left lobule in 10% formalin, and embed it by paraffin after being fixed, then cut it into slices to observe the pathological changes by HE staining. As is shown in FIG. 3, structures of lobules of sham operation group are normal and the alveolar walls are complete without inflammation and fibrosis pathological changes. Obvious inflammation injury and masses of tissue begin to appear in lung of mice in model group, then the normal lung tissue disappears and alveolar is blocked. […] The groups with lower dose (30 mg/kg) of the 3 compounds show better effect than the groups with higher dose. The pulmonary inflammation disappears and alveolar structure is clear in groups with lower dose.
Inflammatory classification semi quantitative statistics analysis is made according to results of HE staining. Grade 0 represents normal tissue or minimal inflammation change. Grade 1 (+) represents mild to moderate inflammation change, and lung tissue without obvious damage. Grade 2 (++) represents moderate to severe inflammation injury, and alveolar septum is thickened to form masses of tissue, or lung tissue with damage caused by partial area inflammation. Grade 3 (+++) represents severe inflammation injury, and structure of restricted regions in lung tissue is severely damaged, thus resulting in obliteration. […] The groups with lower dose show better effect than the groups with higher dose. In general, the 3 compounds have better effect in decreasing the pulmonary inflammation than the positive drug pirfenidone.

[7] = test system: pulmonary fibrosis mice induced by bleomycin; test: Masson stained pathological evaluation and imaging analysis of collagen (Embodiment 4); type: in vivo, C57BL/6 mice; details: for collagen deposition (Masson staining, integrated optical density): 30, 60 mg/kg, prevention and treatment groups (FIG. 5, 6), lower dose better in prevention, higher dose better in treatment
Experimental: as §1, §2
Masson staining is a method aiming at specific staining of fibrillar collagen. After the last intragastric administration, the mice are anaesthetized and killed to collect the lung tissue. Immerse the left lobule in 10% formalin, and embed it by paraffin after being fixed, then is cut it into slices to observe the collagen deposition by Masson staining. Semi quantitative analysis is made by using Image-Pro Plus6.0. Integrated optical density (IOD) of collagen in each visual field is measured after Masson staining. 5 samples are studied in each group and 5 visual fields are picked out from each group. Statistics analysis is made by calculating mean value which is considered as relative amount of collagen in each group.

[8] = test system: pulmonary fibrosis mice induced by bleomycin; test: Content determination of hydroxyproline in lung tissue (Embodiment 4); type: in vivo, C57BL/6 mice; details: 30 mg/kg and 60 mg/kg, prevention groups and treatment groups (FIG. 7); lower dose slightly better
Experimental: as §1, §2
Hydroxyproline mainly exists in collagen protein, but there is only a very small amounts in elastin proteins and it cannot found in other proteins. Therefore the content of collagen protein can be indicated by measuring the content of hydroxyproline, so as to evaluate the degree of pulmonary fibrosis. Method of test kit (which is purchased from Nanjing Jiancheng Biological Technology Co., Ltd.) according to specification is used in determination of hydroxyproline. Results can be seen in FIG. 7.

[9] = test system: TGF-β1; test: ELISA content determination of TGF-β1 in mice lung tissue (Embodiment 4); type: in vivo, C57BL/6 mice; details: for content of TGF-β1 in lung tissue (ELISA): 30 mg/kg and 60 mg/kg, prevention groups and treatment groups, versus model group (FIG. 8), lower dose more effective; for effect on content of TGF-β1, comparison among compounds: ELISA, lung tissue
Experimental: as §1, §2
TGF-β1 is a universally recognized strong pro-fibrotic cytokine. It can stimulate the cells to synthesize and secrete extracellular matrix as well as exchange the activity of matrix-degrading enzyme component and directly increase the deposition of ECM. The progress of pulmonary fibrosis can be slowed down by decreasing the content of TGF-β1 in lung tissue. Elisa test kit (which is purchased from Shanghai Excell Biological Technology Co., Ltd.) according to specification is used in the determination of TGF-β1 in mice lung tissue. Results can be seen in FIG. 8.

[10] = prevention groups, 30 mg/kg intragastric to the 14th day
[11] = prevention groups, 30 mg/kg intragastric to the 14th day, 10 animals
[12] = prevention groups, 60 mg/kg intragastric to the 14th day
[13] = prevention groups, 60 mg/kg intragastric to the 14th day, 10 animals
[14] = treatment groups, 30 mg/kg intragastric from the 8th to the 21th day
[15] = treatment groups, 30 mg/kg intragastric from the 8th to the 21th day, 18 animals
[16] = treatment groups, 60 mg/kg intragastric from the 8th to the 21th day
[17] = treatment groups, 60 mg/kg intragastric from the 8th to the 21th day, 18 animals

## CC[C@@H]1[C@H]2CCCCN3[C@@H]2[C@@H](C[C@H]3[C@@H]2C[C@H](C)C(=O)O2)[C@H]2[C@@H]1OC(=O)[C@H]2C [Compound IV, Tuberostemonine H]
[1]
  antitussive effect: very good antitussive effect
  antitussive effect compared with codein: weaker antitussive effect than that of codein

## CC[C@@H]1[C@H]2CCCCN3CC[C@@H]([C@H]4[C@@H]1OC(=O)[C@H]4C)[C@@H]23 [isostenine, reference compound]
[1]
  antitussive effect: very good antitussive effect

## CC[C@H]1[C@H]2[C@@H](CCCN3[C@H]2CC[C@H]3[C@@H]2C[C@H](C)C(=O)O2)O[C@]12C=C(C)C(=O)O2 [stemoninine, reference compound]
[2]
  antitussive activities, comparison among stemona tuberosa alkaloids: similar

## CC[C@@H]1[C@H]2CCCCN3[C@H]2[C@H](C[C@H]3[C@@H]2C[C@H](C)C(=O)O2)[C@@H]2[C@H]1OC(=O)[C@H]2C [Compound I, Tuberostemonine]
[3]
  pulmonary inflammation, injury and fibrosis in HE and Masson stained pathological sections: recover to nearly normal structure
[4]; [10]
  Survival rate: 100%
[4]; [11]
  Mortality (number of dead animals): 0
[4]; [12]
  Survival rate: 90%
[4]; [13]
  Mortality (number of dead animals): 1
[4]; prevention groups, lower dose (30 mg/kg) better
  protective effect on model mice (mortality), comparison among compounds: more effective than compound VIII
[4]; [14]
  Survival rate: 89%
[4]; [15]
  Mortality (number of dead animals): 2
[4]; [16]
  Survival rate: 83%
[4]; [17]
  Mortality (number of dead animals): 3
[5]
  lung index (lung weight divided by mouse weight): significantly decrease the lung index
[6]
  lung tissue inflammation scores (HE stained, grade 0-3): significantly decrease the pulmonary inflammation
  pulmonary inflammation and injury, HE stained pathological changes: significantly alleviate the pulmonary inflammation
[7]
  collagen deposition (Masson staining, integrated optical density): significantly decrease collagen deposition
[7]; in general, Masson staining
  effect in decreasing the collagen deposition, comparison among compounds: slightly better than that of compound VIII
[8]
  content of hydroxyproline in lung tissue: effectively decrease the content of hydroxyproline
[9]
  content of TGF-β1 in lung tissue (ELISA): effectively decrease the content of TGF-β1
  effect on content of TGF-β1, comparison among compounds: slightly better than that of compound VII
[2]
  antitussive activities, comparison among stemona tuberosa alkaloids: weaker

## C[C@@H]1C[C@]2(CCCCN3[C@H]2CC[C@H]3[C@@H]2C[C@H](C)C(=O)O2)OC1=O [croomine, reference compound]
[2]
  antitussive activities, comparison among stemona tuberosa alkaloids: similar

## CC[C@@H]1[C@H]2CCCCN3CC[C@H]([C@@H]4[C@H]1OC(=O)[C@@H]4C)[C@@H]23 [Compound VIII, Sessilifoline B]
[3]
  pulmonary inflammation, injury and fibrosis in HE and Masson stained pathological sections: recover to nearly normal structure
[4]; [10]
  Survival rate: 90%
[4]; [11]
  Mortality (number of dead animals): 1
[4]; [12]
  Survival rate: 80%
[4]; [13]
  Mortality (number of dead animals): 2
[4]; [14]
  Survival rate: 83%
[4]; [15]
  Mortality (number of dead animals): 3
[4]; [16]
  Survival rate: 78%
[4]; [17]
  Mortality (number of dead animals): 4
[5]
  lung index (lung weight divided by mouse weight): significantly decrease the lung index
[6]
  lung tissue inflammation scores (HE stained, grade 0-3): significantly decrease the pulmonary inflammation
  pulmonary inflammation and injury, HE stained pathological changes: significantly alleviate the pulmonary inflammation
[7]
  collagen deposition (Masson staining, integrated optical density): significantly decrease collagen deposition
[8]
  content of hydroxyproline in lung tissue: effectively decrease the content of hydroxyproline
[9]
  content of TGF-β1 in lung tissue (ELISA): effectively decrease the content of TGF-β1
  effect on content of TGF-β1, comparison among compounds: slightly better than that of compound VII

## CCN(CC)CCOCCOC(=O)C1(c2ccccc2)CCCC1 [Pentoxyverine, pentoxyverine, reference compound]
[3]
  pulmonary inflammation, injury and fibrosis in HE and Masson stained pathological sections: cannot decrease the degree of pulmonary injury and fibrosis
[3]; alkaloids and pentoxyverine 30 mg/kg, pirfenidone 300 mg/kg, versus model group (FIG. 1A)
  content of hydroxyproline in lung tissue: no significant difference

## CC[C@@H]1[C@H]2CCCCN3[C@H]2[C@H](C[C@@H]3[C@@H]2C[C@H](C)C(=O)O2)[C@@H]2[C@H]1OC(=O)[C@H]2C [Compound II, Tuberostemonine A]
[3]
  pulmonary inflammation, injury and fibrosis in HE and Masson stained pathological sections: recover to nearly normal structure

## CC[C@@H]1[C@@H]2CCCCN3[C@@H]2[C@@H](C[C@H]3[C@@H]2C[C@H](C)C(=O)O2)[C@H]2[C@@H]1OC(=O)[C@H]2C [Compound III, Tuberostemonine J]
[3]
  pulmonary inflammation, injury and fibrosis in HE and Masson stained pathological sections: recover to nearly normal structure
[1]
  antitussive effect: very good antitussive effect
  antitussive effect compared with codein: weaker antitussive effect than that of codein
